In assay [1] the test system is colonic inflammation induced by TNBS/ethanol. In words: Myeloperoxidase (MPO) activity of the colon wall, TNBS/ethanol-induced colitis (Example 1). Particulars: rats without TNBS/ethanol (0.9% NaCl instillation); intracolonic infusion for 4 days. It is filed as in vivo, WISTAR rats. An excerpt: (§1) This colitis is characterized by an increase in myeloperoxidase (MPO) activity, a marker of the degree of infiltration of polynuclear neutrophils in the colonic mucosa, and by the increase in the macroscopic lesion score (MLS) taking into account the seriousness and the extent of the macroscopic lesions appearing, the presence and seriousness of adherences and the presence or nonpresence of diarrhea in the colon.
The effects of a treatment with a nitric oxide donor, sodium nitroprusside (SNP), or with L. farciminis on a TNBS-induced colitis in rats were compared. Moreover, the effective role of exogenous nitric oxide in these effects was evaluated using an NO scavenger, hemoglobin (Hb). […]
The myeloperoxidase (MPO) activity is determined on colon samples isolated according to the protocol described by BRADLEY et al. (J. Invest. Dermatol., 78, 206-209, 1982). […]
The MPO activity is determined by spectrophotometry. […] The changes in absorbance. (450 nm, 25° C.) were determined by kinetic spectrophotometry of 2 minutes, according to the balanced equation for the enzymatic reaction catalyzed by MPO: H2O2+Cl^−=H2O+HOCl (orange color), and expressed as MPO units.
One MPO activity unit is defined as the quantity of MPO degrading 1 μmol of hydrogen peroxide per minute per milliliter at 25° C. […]

Assay [2] has the same test system. Kind of assay: Macroscopic lesion score (MLS) of the colon, TNBS/ethanol-induced colitis (Example 1). It counts as in vivo, WISTAR rats. As to conditions: rats instilled with TNBS/ethanol, 4 days after instillation; daily intracolonic infusion; SNP 1 mg/kg/day, Hb 200 mg/kg/day.
Text: as §1
For the study of the effects of SNP, 7 groups of WISTAR rats of 200-250 grams were provided, under anesthetic, with an intracolonic catheter (+2 cm from the caeco-colonic junction) exteriorized at the level of the dorsoscapular region. At D+5, the rats receive an intracolonic instillation of 80 mg/kg/day of TNBS/ethanol (groups 4-7) or of a 0.9% NaCl solution (groups 1-3). 4 hours after the instillation, the rats are infused at a flow rate of 250 μl/hour with 1 mg/kg/day of SNP (groups 2 and 5), or 200 mg/kg/day of Hb (groups 3 and 7), or an SNP+Hb mixture (group 6), or a 0.9% NaCl solution (groups 1 and 4), for 4 days. […]
The macroscopic lesion score (MLS) is determined on isolated colonic samples as described by WALLACE et al., (Gastroenterology, 102, 18-27, 1992) according to the assessment grid below: […]

The text below walks through data of patent publication US7628991B2, “Use of Lactobacillus farciminis for the prevention or treatment of digestive pathologies” (Institute National de la Recherche Agronomique (INRA), priority 2002, dated 2009).

As for hemoglobin [Hb], in assay [1], the “MPO activity of the colon wall” value was 426±117 MPO U/g of proteins. Also, the “Macroscopic lesion score (MLS)” value in assay [2] worked out at 5.8±1.3.
